Patent publication US20060069132A1, “Azolecarboxamide herbicides” (priority 2004, published 2006)
Where two headings read alike, the source gives them in different places.

Columns and labels:
johnsongrass = experiment: Test C pre-/postemergence herbicide test; format: in vivo, Sorghum halepense; conditions: for pest or weed control at 62 g/ha: 62 g ai/ha, preemergence, scale 0 to 100; for pest or weed control at 125 g/ha: 125 g ai/ha, scale 0 (no effect) to 100 (complete control)
In short: (§1)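 Visual injury scores run from 0 (no effect) to 100 (complete control), assessed relative to untreated controls 12 to 14 days after treatment in the greenhouse. Chemicals were formulated in a non-phytotoxic solvent mixture with surfactant and applied to soil after planting or to emerged plants at the 1- to 4-leaf stage.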

rice = experiment: Test B pre-/postemergence herbicide test; format: in vivo, Oryza sativa; conditions: Oryza sativa, pre-emergence, 336 h; for plant injury at 125 g/ha: 125 g ai/ha; for plant injury at 500 g/ha: 500 g ai/ha
In short: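 Herbicidal effect was judged by eye on a 0–100 scale after plants stood 13 to 15 days in the greenhouse following pre- or postemergence treatment with surfactant-containing formulations.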

corn = experiment: Test C pre-/postemergence herbicide test; format: in vivo, Zea mays; conditions: for Corn plant response rating (crop injury, 0 = no effect, 100 = complete kill) at 62 g/ha: 62 g ai/ha, preemergence, scale 0 to 100; for Corn plant response rating (crop injury, 0 = no effect, 100 = complete kill) at 125 g/ha: 125 g ai/ha, scale 0 (no effect) to 100 (complete control); for Corn plant response rating (crop injury, 0 = no effect, 100 = complete kill) at 250 g/ha: 250 g ai/ha
In short: as §1

large crabgrass = experiment: Test C pre-/postemergence herbicide test; format: in vivo, Digitaria sanguinalis; conditions: for pest or weed control at 62 g/ha: 62 g ai/ha, preemergence, scale 0 to 100; for pest or weed control at 125 g/ha: 125 g ai/ha, scale 0 (no effect) to 100 (complete control); for pest or weed control at 250 g/ha: 250 g ai/ha
In short: as §1

eastern black nightshade = experiment: Test C pre-/postemergence herbicide test; format: in vivo, Solanum ptycanthum; conditions: for pest or weed control at 62 g/ha: 62 g ai/ha, preemergence, scale 0 to 100; for pest or weed control at 125 g/ha: 125 g ai/ha, scale 0 (no effect) to 100 (complete control)
In short: as §1

[1] = Sorghum halepense, pre-emergence, read-out: Plant response rating, Johnsongrass
[2] = Sorghum halepense, pre-emergence, visual, 12 to 14 days, read-out: Plant response rating, Johnsongrass
[3] = Zea mays, pre-emergence, 312 h, visual, 12 to 14 days
[4] = Digitaria sanguinalis, pre-emergence, 312 h, read-out: Plant response rating, Crabgrass, Large
[5] = Digitaria sanguinalis, pre-emergence, 312 h, visual, 12 to 14 days, read-out: Plant response rating, Crabgrass, Large
[6] = pre-emergence, read-out: Plant response rating, Nightshade
[7] = pre-emergence, visual, 12 to 14 days, read-out: Plant response rating, Nightshade
[8] = Preemergence, 500 g ai/ha, scale 0 to 100, 0 no effect, 100 complete control

With CCNC(=O)c1cccc(NC(=O)c2nn(C(C)(C)C)cc2Br)c1 [Compound 221, 4-bromo-1-(1,1-dimethylethyl)-N-[3-[(ethylamino)carbonyl]phenyl]-1H-pyrazole-3-carboxamide] the pest or weed control at 62 g/ha (johnsongrass; [1]) was 0%, the pest or weed control at 125 g/ha (johnsongrass; [2]) was 0% and the pest or weed control at 250 g/ha (johnsongrass; Sorghum halepense, pre-emergence, 250 g ai/ha, scale 0-100, read-out: Plant response rating, Johnsongrass) was 10%. It also gave a pest or weed control at 500 g/ha (johnsongrass; Sorghum halepense, pre-emergence, 500 g ai/ha, scale 0 to 100 (0 no effect, 100 complete control), visual, 12 to 14 days, read-out: Plant response rating, Johnsongrass) of 80%, a plant injury at 125 g/ha (rice; 0 = no effect, 100 = complete control, read-out: Rice plant response rating (0 to 100 scale)) of 0% and a plant injury at 500 g/ha (rice; visual rating, 0 = no effect, 100 = complete control, read-out: Plant response rating, Rice) of 20%. For the same compound, the Corn plant response rating (crop injury, 0 = no effect, 100 = complete kill) at 62 g/ha (corn; Zea mays, pre-emergence, 312 h) was 0%, the Corn plant response rating (crop injury, 0 = no effect, 100 = complete kill) at 125 g/ha (corn; [3]) was 0% and the Corn plant response rating (crop injury, 0 = no effect, 100 = complete kill) at 250 g/ha (corn; Zea mays, pre-emergence, 312 h, scale 0-100) was 0%. It also gave a Corn plant response rating (crop injury, 0 = no effect, 100 = complete kill) at 500 g/ha (corn; Zea mays, pre-emergence, 312 h, 500 g ai/ha, scale 0 to 100 (0 no effect, 100 complete control), visual, 12 to 14 days) of 10%, a pest or weed control at 62 g/ha (large crabgrass; [4]) of 0% and a pest or weed control at 125 g/ha (large crabgrass; [5]) of 100%. It also gave a pest or weed control at 250 g/ha (large crabgrass; Digitaria sanguinalis, pre-emergence, 312 h, scale 0-100, read-out: Plant response rating, Crabgrass, Large) of 100%, a pest or weed control at 500 g/ha (large crabgrass; Digitaria sanguinalis, pre-emergence, 312 h, 500 g ai/ha, scale 0 to 100 (0 no effect, 100 complete control), visual, 12 to 14 days, read-out: Plant response rating, Crabgrass, Large) of 100% and a pest or weed control at 62 g/ha (eastern black nightshade; [6]) of 30%. The pest or weed control at 125 g/ha (eastern black nightshade; [7]) was 50%, the pest or weed control at 250 g/ha (eastern black nightshade; pre-emergence, 250 g ai/ha, scale 0-100, read-out: Plant response rating, Nightshade) was 70% and the pest or weed control at 500 g/ha (eastern black nightshade; pre-emergence, 500 g ai/ha, scale 0 to 100 (0 no effect, 100 complete control), visual, 12 to 14 days, read-out: Plant response rating, Nightshade) was 100%.
In the case of CCn1nc(C(C)(C)C)cc1C(=O)Nc1cc(C(=O)N(C)C)ccn1 [Compound 156, 2-[[[3-(1,1-dimethylethyl)-1-ethyl-1H-pyrazol-5-yl]carbonyl]amino]-N,N-dimethyl-4-pyridinecarboxamide], the “Johnsongrass plant response rating” value (johnsongrass; [8]) was 100, the pest or weed control at 62 g/ha (johnsongrass; [1]) was 80% and the pest or weed control at 125 g/ha (johnsongrass; [2]) was 85%. The plant injury at 500 g/ha (rice; visual rating 0-100, 0 no effect, 100 complete control, read-out: Plant response rating, Rice) was 100%, the plant injury at 125 g/ha (rice; preemergence, 0 to 100 scale, 0 is no effect, 100 is complete control, read-out: Plant response rating, Rice) was 90% and the “Corn plant response rating” value (corn; [8]) was 50. For the same compound, the Corn plant response rating (crop injury, 0 = no effect, 100 = complete kill) at 62 g/ha (corn; Zea mays, pre-emergence, 312 h) was 15%, the Corn plant response rating (crop injury, 0 = no effect, 100 = complete kill) at 125 g/ha (corn; [3]) was 38% and the Corn plant response rating (crop injury, 0 = no effect, 100 = complete kill) at 250 g/ha (corn; Zea mays, pre-emergence, 312 h, scale 0 to 100 (0 no effect, 100 complete control), visual, 12 to 14 days) was 40%. For the same compound, the pest or weed control at 62 g/ha (large crabgrass; [4]) was 60%, the pest or weed control at 125 g/ha (large crabgrass; [5]) was 85% and the pest or weed control at 250 g/ha (large crabgrass; Digitaria sanguinalis, pre-emergence, 312 h, scale 0 to 100 (0 no effect, 100 complete control), visual, 12 to 14 days, read-out: Plant response rating, Crabgrass, Large) was 90%. The “Crabgrass, Large plant response rating” value (large crabgrass; [8]) was 100, the “Nightshade plant response rating” value (eastern black nightshade; [8]) was 100 and the pest or weed control at 62 g/ha (eastern black nightshade; [6]) was 75%. For the same compound, the pest or weed control at 125 g/ha (eastern black nightshade; [7]) was 93%.
